The text below walks through data of patent US6017932A, “Pharmaceutical compositions containing at least one NSAID having increased bioavailability” (priority 1996, dated 2000).

For series [1] the following is noted: cited from earlier work.
Series [2] deals with histamine release, neutrophil myeloperoxidase pathway, bradykinin activity, phosphodiesterase type IV and others. To be noted: in words; cited from earlier work.
For series [3] the following is noted: cited from earlier work; for effect of Piperine on bio-availability (in words): with Piperine; for mean increase in AUC: formulations with Piperine vs without.
A further series deals with COX-II. The following applies: vs COX-I; cited from earlier work.
A short description of a further series: in vivo. To be noted: rat, plasma, po, 10 mg/kg.
The nature of series [4]: Plasma levels of Nimesulide in rats after composition with/without Piperine (Experiment I). Type of series: in vivo, albino rats. Here is the method: The rats were housed 5 per cage with food and water provided ad libidum.
On the day of experimentation the rats were randomised into ten batches of 5 rats each. Four groups were formed. Group I consisted of one batch of 5 rats, which was kept as control which received no drug treatment. Group II consisted of four batches of five rats each. […] Rats of batch I from Group II were sacrificed 60 minutes post treatment after Chloroform anaesthesia. Batch 2,3 and 4 were similarly sacrificed at 120 min., 240 min. and 360 min. post treatment respectively. Blood was collected from the rats from the ventricle into heparinised tubes.
Group III consisted of one batch of 5 rats, which received only Piperine at a dose level of 1.0 mg/kg body wt. The animals were sacrificed 160 minutes post treatment after Chloroform anaesthesia. Blood was collected from the rats from the ventricle into heparinised tubes.
Group IV consisted of 4 batches of 5 rats each. […] Rats of batch 1 from Group IV were sacrificed 60 minutes post treatment after Chloroform anaesthesia. Batch 2, 3 and 4 were similarly sacrificed at 120 min., 240 min. and 360 min. post treatment respectively. Blood was collected from the rats from the ventricle into heparinised tubes.
The blood samples were centrifuged at 3700 rpm and the plasma separated. To 1 ml plasma 0.5 ml of HCl was added and then extracted with 2 ml of benzene. Extracted benzene was evaporated in a water bath at 95° C. and reconstituted with 100 μl of mobile phase and 10 μl was injected into the HPLC.
Waters HPLC fitted with C8 μ Bondapack was used along with Waters UV-Vis detector (254 nm). Acetonitrile 50% with 50% Ammonium di-hydrogen Phosphate (0.01M) in double distilled, filtered (0.22 μ) water was used as the mobile phase.
Unpaired student T test was applied on the data. Level of significance was fixed at p<0.05.

The conditions of series [5]: relative to other NSAIDs; cited from earlier work.
A further series concerns plasma proteins. To be noted: human; cited from earlier work.
Series [6] deals with renal prostaglandin synthesis. The following applies: rats; cited from earlier work.
Series [7] deals with painful inflammatory conditions. To be noted: cited from earlier work.
The conditions of series [8]: rectal, nimesulide 100 and 200 mg; cited from earlier work.
The conditions of series [9]: cited from earlier work. This is another data set of the same source.
A further series has as its system yeast-induced fever. To be noted: rats with yeast-induced fever; cited from earlier work.
The conditions of series [10]: in words; cited from earlier work.
Where [11] appears, read: oral, 50 to 200 mg nimesulide, healthy adult volunteers.

Entries after “also recorded” stand apart in the source; their conditions may differ. Read-outs that look alike come from different tables or passages of the source.

Method for in vivo: The single test point pharmacokinetic studies were performed in two groups of rats. […] Rats were sacrificed at 90 minutes. post treatment and blood samples were analysed by HPLC.

Turning to `CS(=O)(=O)Nc1ccc([N+](=O)[O-])cc1Oc1ccc(O)cc1` [4-hydroxy-nimesulide], the accumulation result in series [1] (patients with moderate renal impairment) is given as “Slight accumulation”. In addition, the other effects entry in series [2] is reported as “appears to contribute to the anti-inflammatory activity”.

`CC[C@@H](CO)NCCN[C@@H](CC)CO` [Ethambutol]: the “effect of Piperine on bio-availability (in words)” value in series [3] is given as “increase bio-availability”.

As for `NNC(=O)c1ccncc1` [Isoniazid], the “mean increase in AUC” value in series [3] is 131%.

With `COc1ccc2cc(CCC(C)=O)ccc2c1` [Nabumetone], in the series with COX-II, the “COX-II selectivity (in words)” value is on record as “selectively inhibit the detrimental COX-II”.

`CS(=O)(=O)Nc1ccc([N+](=O)[O-])cc1Oc1ccccc1` [Nimesulide, N-(4-nitro, 2-phenoxyphenyl) methanesulfonamide]: the concentration at 1.5 h in “in vivo” is 8820 µg/mL. In addition, the “Concentration of the drug in plasma” value in series [4] (240 min, Nimesulide alone 1.8 mg/kg) came to 4.6 ± 1.4 kg/mL. For the same compound, in series [4] (rat, plasma, po, 1.8 mg/kg), the concentration at 1 h stood at 5800 ± 1700 µg/mL, the concentration at 2 h is 7900 ± 2300 µg/mL, the concentration at 4 h was found to be 4600 ± 1400 µg/mL and the concentration at 6 h is 2200 ± 1100 µg/mL. Further, the “pharmacokinetic profile in special populations” value in series [1] (children, elderly volunteers, moderately impaired renal function (creatinine clearance 1.8 to 4.8 L/h)) is given as “not significantly altered”. For the same compound, the “ulcerogenicity / gastric tolerance” value in series [5] is “less ulcerogenic than aspirin, indomethacin, naproxen, piroxicam and ibuprofen; also recorded: better gastric tolerance than other commonly used NSAIDs”. In addition, the “bound to plasma proteins” value in the series with plasma proteins was 99%. Besides, in series [2], the other effects result was “appears to exert its effects on histamine release, the neutrophil myeloperoxidase pathway, bradykinin activity, tumour necrosis factor-a release, cartilage degradation, metalloprotease synthesis, phosphodiesterase type IV inhibition, platelet aggregation and synthesis of platelet activating factor”. Besides, the “effect on renal prostaglandin synthesis” value in series [6] was “little effect on renal prostaglandin synthesis in rats”. Further, in series [7] (human, in vivo), the onset of analgesia entry is “rapid onset of analgesia”. Moreover, the “efficacy in cancer pain” value in series [7] (in words) is “highly efficaceous in cancer pain”. Further, the “clinical efficacy vs placebo” value in [7] (oral mostly 200 mg/day or rectal 400 mg/day) is on record as “more effective than placebo”. In [7] (vs piroxicam, ketoprofen, naproxen, etodolac, mefenamic acid, diclofenac and others), the “clinical efficacy vs other NSAIDs” value is on record as “at least as effective as therapeutic dosages of other NSAIDs”. Besides, in [8], the peak serum concentrations was 2.14 to 2.32 mg/L and the “time to peak serum concentration” value was 3 to 4.58 h. In addition, the “effect of food on absorption” value in series [9] (concomitant administration of food) was “may decrease the rate, but not the extent, of absorption”. Besides, the “apparent volume of distribution” value in [9] (following oral administration) is 0.19 to 0.35 L/kg. Also, the “dose excreted unchanged in the urine” value in series [9] (human, in vivo, po) is on record as 1 to 3%. In [9] (in words), the biotransformation entry is “almost completely biotransformed into 4-hydroxy-nimesulide” and the oral drug absorption result is listed as “nearly complete”. In addition, in series [9] (setting [11]), the peak serum concentrations is 1.98 to 9.85 mg/L and the “time to peak serum concentration” value was 1.22 to 3.17 h. For the same compound, the elimination half-life in series [9] (parent compound) was 1.56 to 4.95 h. The antipyretic potency entry in the series on yeast-induced fever was “superior antipyretic potency to indomethacin, ibuprofen, aspirin and paracetamol (acetaminophen)”.

Regarding `O=C(/C=C/C=C/c1ccc2c(c1)OCO2)N1CCCCC1` [Piperine, (E, E) 1-[5-(1,3-benzodioxyl-5-yl)-1-oxo-2,4-pentadenyl] piperidine], the solubility / insolubility result in series [10] was “soluble in benzene, chloroform, ether, ethyl acetate, dichloromethane, alcohol, acetic acid and insoluble in water, pet. ether”. In series [4] (120 min. post treatment, Nimesulide 1.8 mg/kg with or without Piperine 1.0 mg/kg, oral, rats), the “Plasma levels of Nimesulide” value is given as “Nil”.

With `NC(=O)c1cnccn1` [Pyrazinamide], in series [3], the “mean increase in AUC” value is reported as 36%.

`CO[C@H]1/C=C/O[C@@]2(C)Oc3c(C)c(O)c4c(O)c(c(/C=N/N5CCN(C)CC5)c(O)c4c3C2=O)NC(=O)/C(C)=C\C=C\[C@H](C)[C@H](O)[C@@H](C)[C@@H](O)[C@@H](C)[C@H](OC(C)=O)[C@@H]1C` [Rifampicin]: in [3], the “mean increase in AUC” value is recorded as 37.6%.

As to `CCCCNC(=O)NS(=O)(=O)c1ccc(C)cc1` [tolbutamide], in [3], the “effect of Piperine on bio-availability (in words)” value is reported as “no effect on enhancing the bio-availability”.
